In ChEMBL document CHEMBL5528044, “Exploring the Function of (+)-Naltrexone Precursors: Their Activity as TLR4 Antagonists and Potential in Treating Morphine Addiction” (J Med Chem, 2024):
The source made the active and inactive calls. No cut-off for these calls is given here.

Columns and labels:
[1] = biological target: T1, Toll-like receptor 4 (Mus musculus, UniProt Q9QUK6); assay: Antagonist activity at TLR4 in mouse BV-2 cells assessed as inhibition of LPS-induced NO overproduction incubated for 24 hrs by 2,3-diaminonaphthalene reagent based microplate reader analysis; format: cell-based
T1 sequence (Q9QUK6 whole entry): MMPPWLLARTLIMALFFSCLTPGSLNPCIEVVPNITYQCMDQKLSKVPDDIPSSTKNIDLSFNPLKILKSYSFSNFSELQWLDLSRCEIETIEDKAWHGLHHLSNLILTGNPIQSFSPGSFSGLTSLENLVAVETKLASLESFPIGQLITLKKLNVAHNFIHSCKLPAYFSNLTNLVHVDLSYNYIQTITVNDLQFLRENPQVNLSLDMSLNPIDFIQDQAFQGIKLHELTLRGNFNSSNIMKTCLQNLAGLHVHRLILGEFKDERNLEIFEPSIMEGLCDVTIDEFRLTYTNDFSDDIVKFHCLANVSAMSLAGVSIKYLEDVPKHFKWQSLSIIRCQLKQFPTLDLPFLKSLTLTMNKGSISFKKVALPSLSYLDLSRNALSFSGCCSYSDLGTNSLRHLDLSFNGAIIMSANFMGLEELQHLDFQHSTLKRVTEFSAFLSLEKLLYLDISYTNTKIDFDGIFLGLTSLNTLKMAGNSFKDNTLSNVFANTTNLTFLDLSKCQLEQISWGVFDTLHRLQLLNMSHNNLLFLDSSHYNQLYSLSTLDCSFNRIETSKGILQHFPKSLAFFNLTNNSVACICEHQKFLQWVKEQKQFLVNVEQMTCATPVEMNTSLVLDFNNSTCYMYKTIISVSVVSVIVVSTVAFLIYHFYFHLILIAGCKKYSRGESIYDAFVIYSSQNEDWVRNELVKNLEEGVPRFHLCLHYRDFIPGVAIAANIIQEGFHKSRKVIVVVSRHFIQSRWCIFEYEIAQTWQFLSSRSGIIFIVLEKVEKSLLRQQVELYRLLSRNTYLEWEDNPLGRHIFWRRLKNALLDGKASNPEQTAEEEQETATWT

[2] = Half life in Balb/c mouse at 2 mg/kg,iv administration and measured upto 24 hrs by LC-MS/MS analysis; format: ADME, organism-based; details: in vivo
[3] = Volume of distribution at steady state in Balb/c mouse at 2 mg/kg,iv administration and measured upto 24 hrs by LC-MS/MS analysis; format: ADME, organism-based; details: in vivo, read-out: Vdss
[4] = Ratio of drug concentration in brain to plasma in Balb/c mouse at 2 mg/kg,iv measured after 30 mins by LC-MS/MS analysis; format: ADME, organism-based; details: 0.5 h
[5] = Half life in Balb/c mouse at 20 mg/kg,po administration and measured upto 24 hrs by LC-MS/MS analysis; format: ADME, organism-based; details: in vivo
[6] = AUC (0 to infinity) in Balb/c mouse at 20 mg/kg,po administration and measured upto 24 hrs by LC-MS/MS analysis; format: ADME, organism-based; details: in vivo
[7] = Oral bioavailability in Balb/c mouse at 20 mg/kg administration and measured upto 24 hrs by LC-MS/MS analysis; format: ADME, organism-based; details: in vivo
[8] = biological target: T1, Toll-like receptor 4; assay: Antagonist activity at TLR4 in mouse BV-2 cells assessed as inhibition of LPS-induced TNF-alpha production by ELISA; format: cell-based
[9] = biological target: T2, Toll-like receptor 4 (Mus musculus) (UniProt Q9QUK6); assay: Antagonist activity at TLR4 in mouse BV-2 cells assessed as inhibition of LPS-induced NF-kappaB activation at 4 uM incubated for 24 hrs by dual-glo luciferase assay; format: cell-based; details: filed as antagonist
T2 sequence (whole entry): T1 sequence (Q9QUK6 whole entry)

[10] = biological target: T2, Toll-like receptor 4 (Mus musculus); assay: Antagonist activity at TLR4 signaling pathway in mouse BV-2 cells assessed as inhibition of LPS-induced MyD88 recruitment at 5 uM incubated for 1 hr by co-immunoprecipitation based Western blot analysis; format: cell-based
[11] = biological target: T2, Toll-like receptor 4 (Mus musculus); assay: Antagonist activity at TLR4 signaling pathway in mouse BV-2 cells assessed as downregulation of LPS-induced IKKalpha phosphorylation at 5 uM incubated for 1 hr by Western blot analysis; format: cell-based; details: filed as antagonist
[12] = biological target: T2, Toll-like receptor 4 (Mus musculus); assay: Antagonist activity at TLR4 signaling pathway in mouse BV-2 cells assessed as downregulation of LPS-induced IKKbeta phosphorylation at 5 uM incubated for 1 hr by Western blot analysis; format: cell-based; details: filed as antagonist
[13] = biological target: T2, Toll-like receptor 4 (Mus musculus); assay: Antagonist activity at TLR4 signaling pathway in mouse BV-2 cells assessed as downregulation of LPS-induced ERK phosphorylation at 5 uM incubated for 1 hr by Western blot analysis; format: cell-based; details: filed as antagonist
[14] = biological target: T2, Toll-like receptor 4 (Mus musculus); assay: Antagonist activity at TLR4 signaling pathway in mouse BV-2 cells assessed as downregulation of LPS-induced IRF-3 phosphorylation at 5 uM incubated for 1 hr by Western blot analysis; format: cell-based; details: filed as antagonist
[15] = biological target: T2, Toll-like receptor 4 (Mus musculus); assay: Antagonist activity at TLR4 signaling pathway in mouse BV-2 cells assessed as downregulation of LPS-induced IRAK1 phosphorylation at 5 uM incubated for 1 hr by Western blot analysis; format: cell-based
[16] = tested on: Mus musculus; assay: Inhibition of morphine-induced addiction behavior in Balb/c mouse assessed as decrease in morphine-induced behavioral sensitization during induction phase at 0.005 to 0.2 mg/kg,ip administrated on day 4 to 10 by open-field test; format: functional, organism-based; details: dose 0.005-0.2 mg/kg, time 7.0 day
[17] = tested on: Mus musculus; assay: Inhibition of morphine-induced addiction behavior in Balb/c mouse assessed as decrease in locomotor activity at 0.005 to 0.2 mg/kg,ip administrated on day 4 to 10 by open-field test; format: functional, organism-based; details: dose 0.005-0.2 mg/kg, time 7.0 day
[18] = Toxicity in morphine-induced Balb/c mouse assessed body weight loss at 0.2 mg/kg,ip administrated for 1 week; format: organism-based; details: in vivo, 168 h, time 1 weeks
[19] = tested on: Mus musculus; assay: Inhibition of morphine-induced addiction behavior in Balb/c mouse assessed reduction in CPP score at 0.2 mg/kg,ip administrated for 6 consecutive days by conditioned place preference assay; format: functional, organism-based
[20] = tested on: Mus musculus; assay: Inhibition of chronic morphine-induced microglia activation in Balb/c mouse assessed as reduction in Iba1 expression in nucleus accumbens region at 0.2 mg/kg,ip administrated for 6 consecutive days by immunofluorescence staining based analysis; format: functional, organism-based
[21] = tested on: Mus musculus; assay: Inhibition of chronic morphine-induced microglia activation in Balb/c mouse assessed as reduction in TNF-alpha mRNA expression in brain medial prefrontal cortex region at 0.2 mg/kg,ip administrated for 6 consecutive days by qPCR analysis; format: functional, organism-based
[22] = tested on: Mus musculus; assay: Inhibition of chronic morphine-induced microglia activation in Balb/c mouse assessed as reduction in TNF-alpha mRNA expression in brain ventral tegmental area region at 0.2 mg/kg,ip administrated for 6 consecutive days by qPCR analysis; format: functional, organism-based
[23] = tested on: Mus musculus; assay: Inhibition of chronic morphine-induced microglia activation in Balb/c mouse assessed as reduction in microglia cell number in brain medial prefrontal cortex region at 0.2 mg/kg,ip administrated for 6 consecutive days by immunofluorescence staining based analysis; format: functional, organism-based
[24] = tested on: Mus musculus; assay: Inhibition of chronic morphine-induced microglia activation in Balb/c mouse assessed as reduction in microglia cell number in brain ventral tegmental area region at 0.2 mg/kg,ip administrated for 6 consecutive days by immunofluorescence staining based analysis; format: functional, organism-based
[25] = tested on: Mus musculus; assay: Inhibition of chronic morphine-induced microglia activation in Balb/c mouse assessed as reduction in microglia cell number in brain nucleus accumbens region at 0.2 mg/kg,ip administrated for 6 consecutive days by immunofluorescence staining based analysis; format: functional, organism-based

Compound	IC50 [1]	half-life [2]	Vd [3]	BPR [4]	half-life [5]	AUC(0-inf) [6]	bioavailability [7]	IC50 [8]	Activity [9]	Activity [10]	Activity [11]	Activity [12]	Activity [13]	Activity [14]	Activity [15]	inhibition [16]	inhibition [17]	Activity [18]	inhibition [19]	inhibition [20]	other results
CN1CC[C@@]23c4c5ccc(O)c4O[C@@H]2C(=O)C=C[C@]3(O)[C@@H]1C5 (single isomer, unassigned)	1000 nM	2.2 h	75.5 L/kg	18.4%	8.9 h	295 ng·h/mL	41.1%	2300 nM	Active	inactive	Active	Active	Active	Active	inactive	Dose-Dependent Effect	Dose-Dependent Effect	Non-Toxic	Active	Active	inhibition [21]: Active; inhibition [22]: Active; inhibition [23]: Active; inhibition [24]: Active; inhibition [25]: inactive
COc1ccc2c3c1O[C@@H]1C(=O)C=C[C@]4(O)[C@H](C2)N(C)CC[C@@]314 (single isomer, unassigned)	1300 nM	0.6 h	97 L/kg	73.6%	2.2 h	89.6 ng·h/mL	54.3%	4200 nM	Active	inactive	Active	Active	Active	Active	inactive	Dose-Dependent Effect	Dose-Dependent Effect	Non-Toxic	Active	Active	inhibition [21]: Active; inhibition [22]: Active; inhibition [23]: Active; inhibition [24]: Active; inhibition [25]: inactive
